Measurements reported in patent US20230183265A1, “Crystal Form of Macrocyclic Tyrosine Kinase Inhibitor and Preparation Method therefor” (SHANDONG XUANZHU PHARMA CO., LTD., priority 2020, published 2023).
pIC50: −log10 of the molar value. Values belong to the compound of their own block, whether it stands above or below them.

Legend:
[1] = system: Ba/F3 SLC34A2/ROS1-G2032R cell line; test: In vitro cytological inhibitory activity (Celltiter-Glo assay); assay type: cell-based; conditions: Mus musculus, BaF3, 72 hours
Description: (§1) Test compound: the compound represented by Formula (I), prepared according to the method in Embodiment 1.
The meanings of cell lines used in the experiment are as follows: • Ba/F3 SLC34A2/ROS1-G2032R cell line: • A stably expressed cell line of Ba/F3 cells transfected with SLC34A2/ROS1-G2032R.
Experimental Method (Celltiter-Glo Assay)
(§2) 1. Cell Culture and Inoculation
(§3) All cells were suspension cells, and all culture mediums were RPM1-1640+10% FBS. The cells were tested in a logarithmic growth phase.
(§4) The cells in the logarithmic growth phase were collected and counted by a platelet counter. A trypan blue exclusion method was used to detect the cell activity, as to ensure that the cell activity was above 90%. It was adjusted to the appropriate concentration, and 90 μL of cell suspension was respectively added to a 96-well plate.
(§5) 2. Preparation of Test Compound
2.2 Preparation of Working Stock Solution of Test Compound […]
A CTG reagent was molten and a cell plate was balanced to a room temperature for 30 minutes. […] The light signal value was read by a multifunctional microplate reader.
1) Cell survival rate (%)=(test compound well reading−blank well reading)/(DMSO solvent control well reading−blank well reading)×100%; and […]

[2] = system: xenograft tumor of BaF3 LMNA-NTRK1-G595R stably transfected cell line; test: Efficacy study on BaF3 LMNA-NTRK1-G595R stable cell strain subcutaneous xenograft model; assay type: in vivo, mouse (NOD-SCID); conditions: bid, p.o., 7 days
Description: Test substance: the compound represented by Formula (I), prepared according to the method in Embodiment 1.
A BaF3LMNA-NTRK1-G595R stably transfected cell line resuspended in a RPM11640 serum-free medium was inoculated subcutaneously on a right scapula of a mouse (nonobese diabetic-severe combined immunodeficiency disease (NOD-SCID)) at 1×10^6 cells/mouse (0.1 ml/mouse).
3.2 Grouping Administration
While the average tumor volume was about 500 mm^3, it was randomly divided into a vehicle group, a compound represented by Formula (I) (10/5/3/1 mg/kg, bid) group and a LOXO-195 group (30/10/3 mg/kg, bid).
3.3 Experimental Evaluation Index
1) Tumor growth inhibition rate TGI (%) • TGI (%)=(1−T/C)×100%
2) Tumor volume ratio of Treatment group/Control group TIC (%) • TIC (%)=TRTV/CRTV×100% • RTV=Vt/V0, herein Vt is the tumor volume on the t-th day after grouping, and V0 is the tumor volume on the day of grouping; TRTV: the average relative tumor volume in the administration group; and CRTV: the average relative tumor volume in the vehicle control group.

[3] = system: Ba/F3 LMNA-NTRK1-G595R cell line; test: In vitro cytological inhibitory activity (CelltiterGlo assay); assay type: cell-based; conditions: Mus musculus, BaF3, 72 hours
Excerpt: as §1
(§6) The meanings of cell lines used in the experiment are as follows: • Ba/F3 LMNA-NTRK1-G595R cell line: • A stably expressed cell line of Ba/F3 cells transfected with LMNA-NTRK1 G595R; and • Ba/F3 ETV6-NTRK3-G623R cell line: • A stably expressed cell line of Ba/F3 cells transfected with ETV6-NTRK3-G623R.
(§7) Experimental Method (CelltiterGlo Assay)
as §2, §3
as §4, with “activity,” for “activity, as”
as §5
(§8) “M” means “mol/L”, “mM” means “mmol/L”, and “μM” means “μmol/L”. […]
(§9) A CellTiter-Glo luminescent cell viability assay (CTG) reagent was molten and a cell plate was balanced to a room temperature for 30 minutes. […] The light signal value was read by a multifunctional microplate reader.
(§10) 1) Inhibition rate (%)=(DMSO solvent control well reading−test compound well reading)/(DMSO solvent control well reading−blank well reading)×[…]; and […]

[4] = system: Ba/F3 ETV6-NTRK3-G623R cell line; test: as above; assay type: cell-based; conditions: Mus musculus, BaF3, 72 hours
Excerpt: as §1, §6, §7, §2, §3
as §4, with “activity,” for “activity, as”
as §5, §8, §9, §10

[5] = Hygroscopicity test of crystal form II; assay type: physicochemical
Description: 2. Hygroscopicity Test of Crystal Form II
Test sample: the crystal form II of the compound represented by Formula (I).
Test method: it was determined according to the general rule 9103 (guidelines of drug hygroscopicity test) of the Chinese Pharmacopoeia (2015 Edition, Part IV): the test sample was placed under the condition of 25° C. and RH80% for 24 h (a sample bottle was placed under this condition for 24 h in advance), and results were shown in Table 2: […]

[6] = Stability test of crystal form II; assay type: physicochemical
Description: Test sample: the crystal form II of the compound represented by Formula (I)
Test method: a suitable amount of the test samples was respectively weighed, and the appearance, moisture, content, related substances, XRD, and DSC of the test samples were investigated after being placed under the following conditions. The placing conditions were as follows.
Under the conditions of 60° C.±2° C., or of 25° C. RH92.5%, it was placed for 10 days, opened/closed, and a sample was taken for testing on the 10th day (the opened package is a flat weighing bottle, and the closed package is a low-density polyethylene bag or low-density polyethylene bag+composite film bag.
Under the conditions of 40° C. RH75%, it was placed for one month, opened/closed, and a sample was taken for testing after one month (the opened package is the flat weighing bottle, and the closed package is the low-density polyethylene bag or low-density polyethylene bag+composite film bag).
Moisture: it was determined according to the first 2 coulometric titration of the general rule 0832 (moisture determination) of the Chinese Pharmacopoeia (2015 Edition, Part IV).
XRD: it was determined according to the general rule 0451 (X-ray diffraction) of the Chinese Pharmacopoeia (2015 Edition, Part IV).
DSC: it was determined at a heating rate of 3° C./min, from 100° C. to 200° C.
Related substances and content: it was determined according to the general rule 0512 (HPLC) of the Chinese Pharmacopoeia (2015 Edition, Part IV).

[7] = 25° C. RH 92.5% 10 days, Opened
[8] = 25° C. RH 92.5% 10 days, Polyethylene bag
[9] = 25° C. RH 92.5% 10 days, Polyethylene bag + composite film bag
[10] = 40° C. RH 75% 1M, Polyethylene bag
[11] = 40° C. RH 75% 1M, Polyethylene bag + composite film bag
[12] = 60° C. 10 days, Polyethylene bag
[13] = 60° C. 10 days, Polyethylene bag + composite film bag

pIC50 [1]: 8.64 | pIC50 [3]: 9.22 | pIC50 [4]: 9.00
Structure (SMILES): C[C@@H]1COc2ncc(F)cc2[C@H]2CCCN2c2ccc3ncn(c3n2)C(=O)N1 [Compound represented by Formula (I), (2^2R, 6R)-3^5-fluoro-6-methyl-1^3H-4-oxa-7-aza-1(5,3)-imidazo[4,5-b]pyridina-3(3,2)-pyridina-2(1,2)-pyrrolidina cyclooctaphan-8-one]
T/C ([2]; experiment 1, 3 mg/Kg): 73.2% | TGI ([2]; experiment 1, 3 mg/Kg): 26.8% | T/C ([2]; experiment 2, 1 mg/Kg): 53.7% | TGI ([2]; experiment 2, 1 mg/Kg): 46.3% | T/C ([2]; experiment 2, 5 mg/Kg): 0% | TGI ([2]; experiment 2, 5 mg/Kg): 100% | T/C ([2]; experiment 2, 10 mg/Kg): 0% | TGI ([2]; experiment 2, 10 mg/Kg): 100%

Moisture absorption weight gain ([5]; 25° C. RH80% placing for 1 day): 0.002% | hygroscopicity (in words) ([5]; 25° C. and RH80% for 24 h): no or almost no hygroscopicity | Appearance ([6]; 0 day): Off-white | Content ([6]; 0 day): 100.4% | DSC ([6]; 0 day): 162.32 °C | Moisture ([6]; 0 day): 0.088% | Total related substance ([6]; 0 day): 0.09% | Appearance [6, 7]: Off-white | Content [6, 7]: 99.6% | DSC [6, 7]: 162.23 °C | Moisture [6, 7]: 0.13% | Total related substance [6, 7]: 0.11% | XRD [6, 7]: Same | Appearance [6, 8]: Off-white | Content [6, 8]: 99.5% | DSC [6, 8]: 162.23 °C | Moisture [6, 8]: 0.11% | Total related substance [6, 8]: 0.10% | XRD [6, 8]: Same | Appearance [6, 9]: Off-white | Content [6, 9]: 99.3% | DSC [6, 9]: 162.27 °C | Moisture [6, 9]: 0.11% | Total related substance [6, 9]: 0.11% | XRD [6, 9]: Same | Appearance ([6]; 40° C. RH 75% 1M, Opened): Off-white | Content ([6]; 40° C. RH 75% 1M, Opened): 100.8% | DSC ([6]; 40° C. RH 75% 1M, Opened): 162.29 °C | Moisture ([6]; 40° C. RH 75% 1M, Opened): 0.026% | Total related substance ([6]; 40° C. RH 75% 1M, Opened): 0.10% | XRD ([6]; 40° C. RH 75% 1M, Opened): Same | Appearance [6, 10]: Off-white | Content [6, 10]: 101.0% | DSC [6, 10]: 162.18 °C | Moisture [6, 10]: 0.033% | Total related substance [6, 10]: 0.10% | XRD [6, 10]: Same | Appearance [6, 11]: Off-white | Content [6, 11]: 101.0% | DSC [6, 11]: 162.35 °C | Moisture [6, 11]: 0.036% | Total related substance [6, 11]: 0.10% | XRD [6, 11]: Same | Appearance ([6]; 60° C. 10 days, Opened): Off-white | Content ([6]; 60° C. 10 days, Opened): 99.8% | DSC ([6]; 60° C. 10 days, Opened): 162.24 °C | Moisture ([6]; 60° C. 10 days, Opened): 0.18% | Total related substance ([6]; 60° C. 10 days, Opened): 0.11% | XRD ([6]; 60° C. 10 days, Opened): Same | Appearance [6, 12]: Off-white | Content [6, 12]: 100.0% | DSC [6, 12]: 162.26 °C | Moisture [6, 12]: 0.15% | Total related substance [6, 12]: 0.11% | XRD [6, 12]: Same | Appearance [6, 13]: Off-white | Content [6, 13]: 99.7% | DSC [6, 13]: 162.23 °C | Moisture [6, 13]: 0.13% | Total related substance [6, 13]: 0.10% | XRD [6, 13]: Same
Structure (SMILES): C[C@@H]1COc2ncc(F)cc2[C@H]2CCCN2c2ccc3ncn(c3n2)C(=O)N1 [Crystal form II, (2^2R,6R)-3^5-fluoro-6-methyl-1^3H-4-oxa-7-aza-1(5,3)-imidazo[4,5-b]pyridina-3(3,2)-pyridina-2(1,2)-p yrrolidinacyclooctaphan-8-one]
stability of the crystal form (in words) ([6]; 60° C. 10 days, 25° C. RH92.5% 10 days, 40° C. RH75% 1 month, opened/closed package): the stability of the crystal form is good

Structure (SMILES): C[C@@H]1CCc2ncc(F)cc2[C@H]2CCCN2c2ccn3ncc(c3n2)C(=O)N1 [LOXO-195, reference compound]
T/C ([2]; experiment 1, 3 mg/Kg): 93.6% | TGI ([2]; experiment 1, 3 mg/Kg): 6.4% | T/C ([2]; experiment 1, 10 mg/Kg): 63.1% | TGI ([2]; experiment 1, 10 mg/Kg): 36.9% | T/C ([2]; experiment 2, 30 mg/Kg): 0% | TGI ([2]; experiment 2, 30 mg/Kg): 100%
